Measurements published in publication PMC11645267, “Novel pharmacologic inhibition of lysine-specific demethylase 1 as a potential therapeutic for glioblastoma” (Cancer Gene Therapy, 2024).

How the values were obtained:
[1] = tested on: KINGS1 and F3 cells; assay: PARP cleavage (apoptosis) by western blot; format: cell-based; settings: KINGS1 and F3, 5 μM
Text: Super-enhancers consist of enhancer clusters with abundant binding of transcription factors and are highly enriched with H3K27ac marks. The H3K4me2 increased regions included the MYC locus and H3K4me2 de novo regions comprised Nestin and SOX2 loci (Fig. 2F, Supplementary Fig. S5A). These regions were also identified as super-enhancers in GSCs using data from our previous study (Fig. 2F). Compared to the large increase in H3K4me2 in these regions, changes in H3K4me3 were subtle after S2172 treatment (only 2582 regions were acquired modification) (Fig. 2C). Increasing the me2/me3 ratio at H3K4 is associated with reduced gene expression.
Supplementary Figure. S3 Shinjo K. et al […]
B. Western blot analysis of LSD1,MYC, Nestin, SOX2,and ACTB in same cells as shown in panel A. ACTB was used as a loading control. […] Quantification of signal intensities of the Western blot (right panel). […] Right panel: Quantification of band signal intensities from the Western blot. […] The ratio was calculated by dividing the cleaved PARP band intensity by the full-length PARP band intensity. […]
A. Left panel: Western blot analysis of H3K4me1, H3K4me2, H3K4me3, and H3K9me2 after treatment with either DMSO or S2172 5μM for 96 h in normal neural stem cell F3 . […] Right panel: Quantification of signal intensities of the Western blot. […]
C. […] Right panel: Quantification of band signal intensities from the Western blot. […]

[2] = target: LSD1 (Homo sapiens, UniProt O60341); assay: Enzyme inhibition assay (in vitro peroxidase assay) against LSD1
Experimental: Enzyme inhibition assays against LSD1, LSD2, MAO-A, and MAO-B were performed as previously described [25]. Technical replicates, n = 3.

- Ki [2]: 270 ± 60 nM
- kinact ([2]; read-out: kinact LSD1): 0.0026 ± 0.0002 s⁻¹
- kinact/KI ([2]; read-out: kinact/Ki LSD1): 9800 ± 570 M⁻¹ s⁻¹
Compound: NC1CCC(NC2CC2c2cc(F)cc(F)c2OCc2ccccc2)CC1 (stereo not shown) [S2172]
- cleaved-PARP levels [1]: not significantly increased
